The values below come from patent US20020082241A1, “Adenosine as antithrombotic” (priority 2000, published 2002).

Series [1] is described as follows: acute toxicity in adult rats, single intravenous dose. To be noted: rat, single i.v. dose, up to approximately 70 mg/kg (69.55±5.65 mg/kg), necropsy Day 8. The class given is in vivo. As to the method:
The potential acute toxicity of the compound in adult rats when administered intravenously as a single dose was examined. Twenty animals were divided into five treatment groups of two males and two females each as follows: Group 1: vehicle control; Group 2: 1 mg of the compound/kg body weight of animal; Group 3: 10 mg of the compound/kg body weight of animal; Group 4: 50 mg of the compound/kg body weight of animal; and Group 5: 100 mg of the compound/kg body weight of animal. The tested article was reconstituted with 0.9% sodium chloride injection to provide 0.64±0.05 mg/kg (Group 2), 6.89±1.13 mg/kg (Group 3), 35.02±5.02 mg/kg (Group 4) and 69.55±5.65 mg/kg (Group 5). Animals were dosed on Day 1, and scheduled necropsies conducted on Day 8 included gross examination of organs and tissues, organ weight measurements, and tissue collection for potential histopathological examination. It was found in the compound treatment groups that there was no change in clinical observations, serum chemistry, hematology, gross examination, body weight and organ weight (absolute and relative) that could be attributed to the compound.

Series [2] has as its target T1, platelet membrane receptor protein gpIIb/IIIa (Homo sapiens, UniProt P05106+P08514).
T1 construct: platelet membrane receptor protein gpIIb/IIIa was purified from platelets; from tissue; host or cells: platelets
Description: gpIIb/IIIa binding assay with compound spotted on plate and labeled gpIIb/IIIa. The settings on record: concentration of the compound below 10 μg/ml; serial dilution 0 to 50 μg/ml; FIG. 5. As to the method:
For conducting the target-binding assay, platelet membrane receptor protein gpIIb/IIIa was purified from platelets, and its purity was determined by SDS-PAGE and silver staining. The purified protein gpIIb/IIIa was labeled with biotin as described in the conventional protocol. The 120 collected samples were individually coated onto a 384-well plastic plate. The biotin-labeled protein gpIIb/IIIa was added to the sample-coated plastic plate and was incubated with the coated samples at room temperature for 30 minutes. Each well was then washed with TBST buffer for 3 times, to which the extravidin-conjugated alkaline phosphatase was added, and each well was further incubated for 30 minutes. The previous washing step was repeated and each well was then colored with substrate p-nitrophenyl phosphate. The absorption for each well at a wavelength of 405 nm was determined by an automatic ELISA reader (Dynax). […] The compound “adenosine” obtained from Example 4 was used as a standard for the characterization of each batch preparation of the compound. The compound, when purified, was collected, dried and used to verify its gpIIb/IIIa binding capacity. For conducting the binding assay, the compound was formulated into an aqueous solution, and a serial dilution for forming a final concentration of 0 to 50 μg/ml was made. […]

The target of series [3] is T2, gpIIb/IIIa (binding of fibrinogen) (Homo sapiens, UniProt P05106+P08514).
T2 construct: The gpIIb/IIIa purified from platelet was coated on flat wells of a plastic 96-well plate; from tissue; host or cells: platelets
T2 sequence (P08514 32-887 limits assumed): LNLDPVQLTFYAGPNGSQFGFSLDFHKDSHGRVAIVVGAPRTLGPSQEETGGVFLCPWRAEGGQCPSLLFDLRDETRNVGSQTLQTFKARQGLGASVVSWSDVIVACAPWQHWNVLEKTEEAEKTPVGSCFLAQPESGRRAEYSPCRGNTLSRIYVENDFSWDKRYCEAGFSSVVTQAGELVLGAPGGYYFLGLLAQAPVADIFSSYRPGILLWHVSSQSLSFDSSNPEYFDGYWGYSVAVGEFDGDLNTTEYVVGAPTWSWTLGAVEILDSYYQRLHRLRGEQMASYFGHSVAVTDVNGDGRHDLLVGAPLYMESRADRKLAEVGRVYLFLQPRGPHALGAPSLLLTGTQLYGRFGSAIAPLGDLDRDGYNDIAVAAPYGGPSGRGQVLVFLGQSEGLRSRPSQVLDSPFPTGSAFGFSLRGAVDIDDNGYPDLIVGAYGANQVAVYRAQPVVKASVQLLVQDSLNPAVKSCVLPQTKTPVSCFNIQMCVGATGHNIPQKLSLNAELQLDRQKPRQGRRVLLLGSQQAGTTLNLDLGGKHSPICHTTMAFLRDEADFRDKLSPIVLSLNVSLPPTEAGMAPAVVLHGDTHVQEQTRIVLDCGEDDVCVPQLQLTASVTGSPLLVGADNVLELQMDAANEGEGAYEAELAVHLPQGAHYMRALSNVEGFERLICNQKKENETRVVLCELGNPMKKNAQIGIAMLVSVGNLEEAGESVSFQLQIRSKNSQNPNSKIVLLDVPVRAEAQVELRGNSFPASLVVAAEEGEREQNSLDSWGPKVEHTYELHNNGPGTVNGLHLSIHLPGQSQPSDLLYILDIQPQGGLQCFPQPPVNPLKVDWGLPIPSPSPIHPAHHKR
T2 sequence (P08514 891-1039 limits assumed): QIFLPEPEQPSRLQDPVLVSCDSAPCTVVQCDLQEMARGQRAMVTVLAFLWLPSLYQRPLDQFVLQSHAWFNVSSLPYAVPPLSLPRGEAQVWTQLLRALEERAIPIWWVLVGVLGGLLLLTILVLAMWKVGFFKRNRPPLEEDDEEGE
T2 sequence (P05106 27-788): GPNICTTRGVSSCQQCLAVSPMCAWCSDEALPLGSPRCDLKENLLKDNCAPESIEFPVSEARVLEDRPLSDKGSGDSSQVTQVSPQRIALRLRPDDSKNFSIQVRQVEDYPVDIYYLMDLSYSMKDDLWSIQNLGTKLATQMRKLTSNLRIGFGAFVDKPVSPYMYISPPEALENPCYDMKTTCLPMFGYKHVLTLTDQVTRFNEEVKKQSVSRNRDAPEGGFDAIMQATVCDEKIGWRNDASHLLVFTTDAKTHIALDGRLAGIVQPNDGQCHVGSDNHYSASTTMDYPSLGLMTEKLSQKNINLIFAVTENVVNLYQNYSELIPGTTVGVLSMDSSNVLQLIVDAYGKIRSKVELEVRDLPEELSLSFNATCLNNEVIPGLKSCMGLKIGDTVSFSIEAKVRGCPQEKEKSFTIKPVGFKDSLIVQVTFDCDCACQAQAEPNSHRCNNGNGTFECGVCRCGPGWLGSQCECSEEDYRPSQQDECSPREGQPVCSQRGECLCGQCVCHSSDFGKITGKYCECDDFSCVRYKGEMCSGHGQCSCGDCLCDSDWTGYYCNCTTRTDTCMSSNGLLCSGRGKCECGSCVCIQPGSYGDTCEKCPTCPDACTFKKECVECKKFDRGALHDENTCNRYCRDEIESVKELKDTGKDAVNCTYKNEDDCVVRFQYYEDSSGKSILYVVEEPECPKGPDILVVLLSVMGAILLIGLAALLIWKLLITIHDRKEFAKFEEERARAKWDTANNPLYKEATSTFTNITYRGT
Description: competitive ELISA for inhibition of the binding of fibrinogen to gpIIb/IIIa. To be noted: samples 5-60 μg/ml; biotin-labeled fibrinogen 1.5 μg/ml; 37° C.; OD value; FIG. 8. As to the method: A competitive ELISA assay for analyzing that the binding of fibrinogen to gpIIb/IIIa is inhibited was performed for comparative analysis, where the compound, commercial adenosine (a product from Sigma, Cat. A-9251, Lot. 18H0295) and ReoPro® (abciximab) (10 mg/ml; produced by Eli Lilly for laboratory use only, Lot. 97F03, which is a monoclonal antibody and an antagonist against gpIIb/IIIa) were tested. The gpIIb/IIIa purified from platelet was coated on flat wells of a plastic 96-well plate. Samples of each of the test compounds were prepared in a concentration in a range of 5-60 μg/ml. A solution of biotin-labeled fibrinogen was prepared in a concentration of 1.5 μg/ml. Prior to addition to the wells, each of the samples were individually mixed with an equal volume of the biotinylated fibrinogen. The competitive binding reaction in the plate was performed at 37° C. for 2 hours. After another 2 hours for incubation, strepavidin-conjugated alkaline phosphatase was added to each well of the plate. A substrate solution containing p-nitrophenyl phosphate was then added to each well for coloring by a conventional way. The capability of each tested compound in the inhibition of the binding of fibrinogen to gpIIb/IIIa was measured and recorded as OD value.

The test system of series [4] is thrombus formation in mesenteric vein. Description: thrombus formation in vivo in mesenteric vein of rats (electrical stimulation). To be noted: rat. As to the method:
The thrombus formation in vivo in mesenteric vein of rats was used for evaluating an effect of the compound on the inhibition of venous thrombosis. In brief, groups of 3 male Wistar-derived rats, each weighing 60±10 gm, were used for each dosage test. The rats were anesthetized with phenobarbital sodium (50 mg/kg, i.p.), and paralyzed with succinylcholine chloride (2 mg/rat, i.p.). A mesenteric loop and vein was then exposed and mounted on a constructed platform. The exposed area was superfused with a normal saline at 37° C. except during electrode placement and stimulation. With the aid of a dissecting microscope and micromanipulator, a monopolar platinum electrode was brought into and contact with the vein. […] The relative venous occlusion (a measured degree of thrombus formation) was determined as a percentage of venous diameter (0.36 to 0.3 8 mm) and was recorded at 10 seconds (baseline control score) and at 1 minute interval for 20 minutes. […] In the vehicle-treated animals, the 20-minute interval recorded values were averaged, which attains a value ranging from 45 to 55% of the interval vein diameter. Consequently, the antithrombic activity of the compound was calculated as % of inhibition relative to the vehicle-treated control animals. […]

The subject of another series is platelet aggregation. Description: ADP-activated platelet aggregation assay. Type of series: cell-based. As to the method:
To assay the platelet aggregation-inhibiting activity of the compound, a regular ADP-activated platelet aggregation assay was performed. The reagents used for conducting the assay were purchased from Sigma. […] The maximal inhibition activity was about 85%, which occurs at the concentration of the compound from 10 to 15 μg/ml blood.

T1 sequence (P08514 32-887 limits assumed): as the sequence (P08514 32-887 limits assumed) above
T1 sequence (P08514 891-1039 limits assumed): as the sequence (P08514 891-1039 limits assumed) above
T1 sequence (P05106 27-788): as the sequence (P05106 27-788) above

On to `Nc1ncnc2c1ncn2[C@@H]1O[C@H](CO)[C@@H](O)[C@H]1O` [the compound, adenosine], for which the acute toxicity result was “No signs of overt toxicity” in series [1] and “no acute toxicity” in series [1] (listed as adenosine). Moreover, in series [2], the “binding to gpIIb/IIIa, % of the maximal binding” value came out at 80%. The “inhibition of the binding of fibrinogen to gpIIb/IIIa, compared with ReoPro (abciximab)” value in series [3] was “superior effect”. In series [3], the “inhibition of the binding of fibrinogen to gpIIb/IIIa, the compound compared with commercial adenosine” value is given as “quite similar function”. Besides, the “antithrombic activity relative to vehicle treated group, i.v.” value in series [4] (400 μg/rat i.v. 5 minutes before stimulation, at 7, 11, 12, 13, 14, 15, 16, 17 and 19 minutes after electric stimulation, FIG. 7A) is recorded as “significance relative to the vehicle treated group”. The “antithrombic activity relative to vehicle treated group, oral” value in series [4] (4 mg/rat oral feeding 1 hour prior to stimulation, observed at 14, 15, 16, 17, 18 and 20 minutes, FIG. 7C) is recorded as “significant antithrombic activity”. For the same compound, in the series on platelet aggregation (Platelet, 17.4 μg/ml, occurring from the 14th to 16th minutes, FIG. 6B, read-out: maximal inhibition activity on platelet aggregation (time course)), the inhibition at 17.4 µg/mL is ~85%. Further, the “maximal inhibition activity on platelet aggregation (dose response)” value with platelet aggregation (at concentration from 10 to 15 μg/ml blood, FIG. 6A) is “about 85%”.
